Laboratory results: PMC11945486, “TAS1R2/TAS1R3 Single-Nucleotide Polymorphisms Affect Sweet Taste Receptor Activation by Sweeteners: The SWEET Project” (Nutrients, 2025)
No end group written: not given here.

T1: human TAS1R2-A574T/TAS1R3-WT (Homo sapiens, UniProt Q7RTX0+Q8TE23, A574T)
T1 construct: expressed in transfected cells; host or cells: HEK293T-Gα16gust44
T1 sequence (Q8TE23 20-839 A574T): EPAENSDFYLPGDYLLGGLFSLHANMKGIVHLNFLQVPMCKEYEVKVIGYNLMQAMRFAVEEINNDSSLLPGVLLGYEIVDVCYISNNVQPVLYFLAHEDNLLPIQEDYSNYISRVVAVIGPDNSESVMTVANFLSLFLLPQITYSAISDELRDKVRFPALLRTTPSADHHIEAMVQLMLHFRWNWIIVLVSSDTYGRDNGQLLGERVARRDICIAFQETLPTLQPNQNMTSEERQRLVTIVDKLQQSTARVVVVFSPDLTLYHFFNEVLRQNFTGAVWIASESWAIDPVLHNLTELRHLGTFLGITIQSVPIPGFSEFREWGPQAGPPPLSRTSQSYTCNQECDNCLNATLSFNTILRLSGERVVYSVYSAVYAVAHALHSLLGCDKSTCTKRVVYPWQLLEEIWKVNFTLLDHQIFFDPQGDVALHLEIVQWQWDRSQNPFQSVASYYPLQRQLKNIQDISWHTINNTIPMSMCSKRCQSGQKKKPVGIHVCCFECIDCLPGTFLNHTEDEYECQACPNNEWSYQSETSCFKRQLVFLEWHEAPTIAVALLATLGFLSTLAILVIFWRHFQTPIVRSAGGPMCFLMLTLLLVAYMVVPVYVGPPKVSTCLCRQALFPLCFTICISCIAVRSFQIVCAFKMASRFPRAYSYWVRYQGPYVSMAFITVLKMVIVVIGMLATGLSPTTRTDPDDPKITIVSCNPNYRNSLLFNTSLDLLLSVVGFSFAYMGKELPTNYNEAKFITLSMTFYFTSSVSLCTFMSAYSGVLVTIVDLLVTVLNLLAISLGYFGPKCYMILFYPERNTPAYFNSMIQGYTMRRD
T1 sequence (Q7RTX0 21-852): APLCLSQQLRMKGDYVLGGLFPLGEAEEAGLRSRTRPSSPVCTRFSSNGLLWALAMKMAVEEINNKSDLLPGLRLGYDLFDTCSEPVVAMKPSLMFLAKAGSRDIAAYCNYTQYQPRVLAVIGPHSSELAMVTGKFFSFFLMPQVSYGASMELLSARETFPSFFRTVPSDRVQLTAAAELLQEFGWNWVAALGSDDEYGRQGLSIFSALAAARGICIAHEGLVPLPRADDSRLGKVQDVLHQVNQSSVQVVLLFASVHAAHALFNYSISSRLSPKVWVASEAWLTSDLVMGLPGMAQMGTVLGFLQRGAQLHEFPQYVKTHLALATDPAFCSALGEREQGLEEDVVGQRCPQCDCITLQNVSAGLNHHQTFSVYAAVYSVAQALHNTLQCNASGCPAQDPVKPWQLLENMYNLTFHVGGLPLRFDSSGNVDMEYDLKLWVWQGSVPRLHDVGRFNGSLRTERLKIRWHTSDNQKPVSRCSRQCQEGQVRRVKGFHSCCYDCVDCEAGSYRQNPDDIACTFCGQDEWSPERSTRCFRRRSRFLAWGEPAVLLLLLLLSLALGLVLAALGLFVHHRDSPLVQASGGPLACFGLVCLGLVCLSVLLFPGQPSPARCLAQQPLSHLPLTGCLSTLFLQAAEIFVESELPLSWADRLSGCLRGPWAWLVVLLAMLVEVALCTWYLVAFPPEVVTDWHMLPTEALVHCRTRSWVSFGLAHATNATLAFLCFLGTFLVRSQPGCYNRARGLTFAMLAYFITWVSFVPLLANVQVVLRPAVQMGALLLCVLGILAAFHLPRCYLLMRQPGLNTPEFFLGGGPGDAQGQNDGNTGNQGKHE


Biological target: T1, human TAS1R2-A574T/TAS1R3-WT
Test: Calcium mobilisation assay, TAS1R2 variant A574T with TAS1R3-WT
Type: cell-based
Conditions: for Max ΔF/F0: maximal signal amplitude
Description: The coding sequences for TAS1R2 and TAS1R3 were commercially synthesised, and the human codon was optimised for expression in human cells. The coding sequences of human TAS1R2 and TAS1R3 were subcloned and inserted into the mammalian expression vectors pcDNA6/myc-HisA and pcDNA4/myc-HisA (Invitrogen; Thermo Fisher Scientific; Illkirch, France) between the EcoRI and NotI restriction sites, generating the plasmids pcDNA6-TAS1R2 and pcDNA4-TAS1R3, respectively. To increase protein expression in mammalian cells, an upstream start codon was used, which was a sequence called MAX, corresponding to the QBI SP163 element also described in pcDNA4-HisMax (Invitrogen; Thermo Fisher Scientific; Illkirch, France). To measure the expression level of the receptor by immunohistochemistry, we used the FLAG sequence ([…]) in the C-terminal position, which encodes the FLAG tag epitope. SNP variants of TAS1R2 and TAS1R3 were constructed based on […], respectively, using site-directed mutagenesis (Genewiz; Leipzig, Germany).
The HEK293T cells were kindly provided by Jay P. Slack (Givaudan Flavors Corporation; Cincinnati, OH, USA). HEK293T cells stably transfected with Gα16gust44 [43, 67] were seeded in poly-D-lysine-coated clear-bottom black 96-well plates (0.35 × 10^5 cells/well) in high-glucose DMEM supplemented with 2 mM GlutaMAX, 10% dialysed foetal bovine serum with penicillin/streptomycin and G418 (400 μg/mL) at 37 °C and 6.3% CO2 in a humidified atmosphere as previously reported. […] As a negative control, HEK293T cells were mock-transfected with the empty expression vector. After a further 24 h of incubation, the HEK293T cells were washed with C1 buffer (130 mM NaCl, 5 mM KCl, 10 mM HEPES pH 7.4 and 2 mM CaCl2). The 96-well plates containing the cells were then stimulated with sweet-tasting compounds. […] Different concentration ranges were tested depending on the sweet compound injected. The Ca^2+ changes were expressed as fractional changes in fluorescent light intensity: ΔF/F = (F − F0)/F0, where F was the fluorescent light intensity at each point, and F0 was the value of emitted fluorescent light prior to stimulus application. To calculate dose–response relationships, the changes in fluorescence upon stimulus application were averaged, mock-subtracted and baseline-corrected. The dose–response data obtained were adjusted using a 4-parameter logistic equation. The half-maximal effective concentrations (EC50 values) and maximal signal amplitudes were calculated using SigmaPlot software (version 15.0) (Systat Software; San Jose, CA, USA).
For in vitro calcium mobilisation assay performed on hTAS1R2-SNPs, hTAS1R3-SNPs and mTAS1R3-I60T, 6 to 7 concentrations were tested for each sweet compound, plus buffer alone. All concentration–receptor combinations were measured in duplicate, and each experiment was repeated at least 4 times (8 wells/concentration). Results were expressed for each concentration as ΔF/F mean ± SEM and represented as dose–response curves.

| EC50 | R1 = Variant EC50/WT EC50 | Max ΔF/F0 | Molecule |
| --- | --- | --- | --- |
| 658 ± 65 µM | 0.9 | 0.34 ± 0.02 | CC1=CC(=O)NS(=O)(=O)O1 [Acesulfame K, acesulfame K] |
| 73.4 ± 8.4 µM | 1.0 | 0.81 ± 0.03 | COc1ccc(CCC(=O)c2c(O)cc(O[C@@H]3O[C@H](CO)[C@@H](O)[C@H](O)[C@H]3O[C@@H]3O[C@@H](C)[C@H](O)[C@@H](O)[C@H]3O)cc2O)cc1O [NHDC, neohesperidin dihydrochalcone] |
| 0.73 ± 0.03 µM | 0.9 | 0.60 ± 0.01 | COC(=O)[C@H](Cc1ccccc1)NC(=O)[C@H](CC(=O)O)NCCC(C)(C)C [Neotame] |
| 19.2 ± 0.9 µM | 1.1 | 1.39 ± 0.02 | C=C(C)[C@@H]1CC=C(/C=N/O)CC1 [Perillartine, perillartine] |
| 16.3 ± 0.5 µM | 1.0 | 1.08 ± 0.01 | C=C1C[C@@]23CC[C@H]4[C@@](C)(CCC[C@@]4(C)C(=O)O[C@@H]4O[C@H](CO)[C@@H](O)[C@H](O[C@@H]5O[C@H](CO)[C@@H](O)[C@H](O)[C@H]5O)[C@H]4O[C@@H]4O[C@H](CO)[C@@H](O)[C@H](O)[C@H]4O)[C@@H]2CC[C@]1(O[C@@H]1O[C@H](CO)[C@@H](O)[C@H](O[C@@H]2O[C@H](CO)[C@@H](O)[C@H](O)[C@H]2O)[C@H]1O[C@@H]1O[C@H](CO)[C@@H](O)[C@H](O)[C@H]1O)C3 [Rebaudioside M, rebaudioside M] |
| 81 ± 2 µM | 0.9 | 0.63 ± 0.01 | OC[C@H]1O[C@H](O[C@]2(CCl)O[C@H](CCl)[C@@H](O)[C@@H]2O)[C@H](O)[C@@H](O)[C@H]1Cl [Sucralose] |
| – | 1.2 | 1.14 ± 0.01 | brazzein (QDKCKKVYENYPVSKCQLANQCNYDCKLDKHARSGECFYDEKRNLQCICDYCEY; ends and bridges not checked; cysteine pairing not given here; UniProt P56552 1-54, looked up) [sweet-tasting protein obtained by recombinant production using the yeast Pichia pastoris] |
| – | 1.9 | 1.37 ± 0.02 | thaumatin |
| 14.1 ± 0.3 µM | – | – | thaumatin (protein, Eight disulfides, sweet-tasting plant protein, E957) ATFEIVNRCSYTVWAAASKGDAALDAGGRQLNSGESWTINVEPGTKGGKIWARTDCYFDDSGSGICKTGDCGGLLRCKRFGRPPTTLAEFSLNQYGKDYIDISNIKGFNVPMDFSPTTRGCRGVRCAADIVGQCPAKLKAPGGGCNDACTVFQTSEYCCTTGKCGPTEYSRFFKRLCPDAFSYVLDKPTTVTCPGSSNYRVTFCPTA |

| Molecule | EC50 | R1 = Variant EC50/WT EC50 | Max ΔF/F0 |
| --- | --- | --- | --- |
| O=S(=O)(O)NC1CCCCC1 [Cyclamate, cyclamate] | 1780 ± 49 µM | – | – |
| C[C@H](CC[C@@H](O[C@@H]1O[C@H](CO[C@@H]2O[C@H](CO)[C@@H](O)[C@H](O)[C@H]2O)[C@@H](O)[C@H](O)[C@H]1O[C@@H]1O[C@H](CO)[C@@H](O)[C@H](O)[C@H]1O)C(C)(C)O)[C@H]1CC[C@@]2(C)[C@@H]3CC=C4[C@@H](CC[C@H](O[C@@H]5O[C@H](CO[C@@H]6O[C@H](CO)[C@@H](O)[C@H](O)[C@H]6O)[C@@H](O)[C@H](O)[C@H]5O)C4(C)C)[C@]3(C)[C@H](O)C[C@]12C [Mogroside V, mogroside V] | 16.7 ± 3.1 µM | 1.0 | 1.25 ± 0.08 |
